The record followed here is ChEMBL document CHEMBL4706534, “1,2,3-Triazole-containing hybrids with potential antibacterial activity against methicillin-resistant Staphylococcus aureus (MRSA)” (Eur J Med Chem, 2020).

For data set [1], the system named is Staphylococcus aureus. The experiment in a line: microbe, parasite or virus in culture. To be noted: 725.
The subject of data set [2] is Staphylococcus aureus. Nature of the data set: microbe, parasite or virus in culture. To be noted: 936.
Data set [3] deals with Staphylococcus aureus. The experiment in a line: Antibacterial activity against methicillin-sensitive Staphylococcus aureus. The data set is classed as functional.
Data set [4] has as its system Staphylococcus aureus. Nature of the data set: Antibacterial activity against methicillin-resistant Staphylococcus aureus. The format is functional.
Data set [5] has as its system Staphylococcus epidermidis. The experiment in a line: Antibacterial activity against methicillin-sensitive Staphylococcus epidermidis. The data set is classed as functional.
Another data set relates to Enterococcus faecalis. Nature of the data set: Antibacterial activity against Enterococcus faecalis. The data set is classed as functional.
The subject of another data set is Enterococcus faecium. The experiment in a line: Antibacterial activity against Enterococcus faecium. The data set is classed as functional.
The subject of another data set is Escherichia coli. Nature of the data set: Antibacterial activity against Escherichia coli. The data set is classed as functional.
A further data set concerns Klebsiella pneumoniae. Nature of the data set: Antibacterial activity against Klebsiella pneumoniae. The format is functional.
In a further data set the test system is Enterobacter cloacae. Nature of the data set: Antibacterial activity against Enterobacter cloacae. The format is functional.
The test system of a further data set is Klebsiella aerogenes. The experiment in a line: Antibacterial activity against Enterobacter aerogenes. The format is functional.
The next data set deals with Providencia rettgeri. The experiment in a line: Antibacterial activity against Providencia rettgeri. The data set is classed as functional.
The test system of another data set is Proteus vulgaris. The experiment in a line: Antibacterial activity against Proteus vulgaris. The data set is classed as functional.
Data set [6] is described as follows: Cytotoxicity against CHO cells. The format is cell-based, Cricetulus griseus. To be noted: chinese hamster.
Data set [7] concerns Staphylococcus aureus. The experiment in a line: Antibiofilm activity against methicillin-resistant Staphylococcus aureus ATCC BAA-44 incubated for 24 hrs by crystal violet-staining based assay. To be noted: ATCC BAA-44, 24 h. The data set is classed as functional, organism-based.
For data set [8], the system named is Staphylococcus aureus. The experiment in a line: Antibiofilm activity against methicillin-resistant Staphylococcus aureus ATCC BAA-44 assessed as disruption of preformed biofilms incubated for 24 hrs by CV-staining based assay. The format is functional, organism-based. To be noted: ATCC BAA-44, 24 h.
The test system of data set [9] is Staphylococcus aureus. Nature of the data set: Potentiation of oxacillin-induced antibacterial activity against methicillin-resistant Staphylococcus aureus ATCC BAA-44 assessed as reduction in oxacillin MIC preincubated for 30 mins followed by oxacillin addition and measured after 16 hrs by broth microdilution method. The data set is classed as functional. The following applies: time 16.5 hrs. (Broth dilution looks for growth in wells or tubes with falling amounts of substance.)

Data set [10] relates to Staphylococcus aureus. The experiment in a line: Antibacterial activity against Methicillin-resistant Staphylococcus aureus ATCC 33591. The format is functional, organism-based.
The subject of data set [11] is Staphylococcus aureus. Nature of the data set: Antibacterial activity against Staphylococcus aureus ATCC 29213. The data set is classed as functional, organism-based.
The subject of data set [12] is Staphylococcus epidermidis. The experiment in a line: Antibacterial activity against methicillin-resistant Staphylococcus epidermidis. The data set is classed as functional.
Data set [13] concerns Staphylococcus aureus. Nature of the data set: Antibacterial activity against Staphylococcus aureus C463 incubated for 18 hrs by CLSI-based two fold agar dilution method. The data set is classed as functional. Background: In agar dilution the substance is mixed into plates at graded concentrations.
Data set [14] deals with Staphylococcus aureus. Nature of the data set: Antibacterial activity against Staphylococcus aureus NRS119 incubated for 18 hrs by CLSI-based two fold agar dilution method. The data set is classed as functional.
Data set [15] deals with Staphylococcus aureus. The experiment in a line: Antibacterial activity against Staphylococcus aureus NRS121 incubated for 18 hrs by CLSI-based two fold agar dilution method. The format is functional.
Data set [16] concerns Staphylococcus aureus. Nature of the data set: Antibacterial activity against Staphylococcus aureus NRS127 incubated for 18 hrs by CLSI-based two fold agar dilution method. The data set is classed as functional.
In data set [17] the test system is Staphylococcus aureus. The experiment in a line: Antibacterial activity against Staphylococcus aureus NRS271 incubated for 18 hrs by CLSI-based two fold agar dilution method. The data set is classed as functional.
For data set [18], the system named is Staphylococcus aureus. Nature of the data set: Antibacterial activity against methicillin-resistant Staphylococcus aureus ATCC 33591 measured after 18 hrs by CLSI-based broth microdilution method. The format is functional.
Data set [19] concerns Staphylococcus aureus. The experiment in a line: Antibacterial activity against methicillin-resistant Staphylococcus aureus ATCC 43300 incubated for 16 to 18 hrs by CLSI based assay. The data set is classed as functional. To be noted: time 16-18 hrs.
Data set [20] concerns Staphylococcus aureus. Nature of the data set: Antibacterial activity against Staphylococcus aureus DSM 20231 incubated for 16 to 18 hrs by CLSI based assay. The data set is classed as functional. The following applies: time 16-18 hrs.
The subject of data set [21] is Staphylococcus aureus. Nature of the data set: Resistance index, ratio of MIC for antibacterial activity against Staphylococcus aureus ATCC 43300 incubated for 16 to 18 hrs by CLSI based assay to MIC for antibacterial activity against Staphylococcus aureus DSM 20231 incubated for 16 to 18 hrs by CLSI based assay. The following applies: time 16-18 hrs. The format is functional.

Structures are written as SMILES. Values after ≈ are worked out from the molar mass of the structure shown.

A word on the CC50: it is the concentration giving 50% cytotoxicity. Lower therefore signals harm at low concentration. One may read the IC50 as the concentration needed to halve the response being measured. The low end stands for greater potency in that assay, the high end for weaker potency in that assay. One may read the EC50 as the concentration that produces a half-maximal response.

In the case of `Cc1nnc(SCC2=C(C(=O)O)N3C(=O)[C@@H](NC(=O)Cn4cnnn4)[C@H]3SC2)s1` [CEFAZOLIN SODIUM], the figures for the MIC in the data set on Staphylococcus aureus [1] and with Staphylococcus aureus [2] were 32 µM and 8 µM, respectively.

As to `COc1c(N2C[C@@H]3CCCN(C(=O)Cn4cc(CN5C(=O)C(=O)c6ccccc65)nn4)[C@@H]3C2)c(F)cc2c(=O)c(C(=O)O)cn(C3CC3)c12`, the MIC in the data set with Staphylococcus aureus [3] was no more than 0.03 µg/mL; against Staphylococcus aureus [4], 1 µg/mL (≈ 1.49 µM); in data set [5], no more than 0.03 µg/mL; with Enterococcus faecalis, no more than 0.03 µg/mL; against Enterococcus faecium it was no more than 0.03 µg/mL; against Escherichia coli, no more than 0.03 µg/mL. Besides, the MIC in the data set with Klebsiella pneumoniae, against Enterobacter cloacae, with Klebsiella aerogenes, with Providencia rettgeri and in the data set on Proteus vulgaris was no more than 0.03 µg/mL each time. Besides, half-maximal cytotoxicity in data set [6] (CC50) was put at 64 µg/mL (≈ 95.6 µM).

As to `CCCCCCc1ccc(C(=O)NCCn2cc(CCCCCc3c[nH]c(N)n3)nn2)cc1`, in the data set on Staphylococcus aureus [7], the IC50 came out at 700 nM. In the data set on Staphylococcus aureus [8], the EC50 was found to be 900 nM. For the same compound, in the data set with Staphylococcus aureus [9], the “fold change (FC)” value is on record as 64.

For `COc1c(Cn2cc(-c3nnc(-c4ccccc4)o3)nn2)c(OC)c(OC)c(OC)c1OC`, the IC50 stood at 6.4 µg/mL (≈ 14.1 µM) with Staphylococcus aureus [10] and 7 µg/mL (≈ 15.4 µM) in the data set on Staphylococcus aureus [11].

Take `CC[C@@H](C(=O)[C@@H](C)[C@@H](O)[C@H](C)[C@@H]1O[C@@H]([C@@H](CC)C(=O)NCc2cn([C@H]3C[C@H](n4cc(F)c(=O)[nH]c4=O)O[C@@H]3CO)nn2)CC[C@@H]1C)[C@H]1O[C@]2(C=C[C@@H](O)[C@]3(CC[C@@](C)([C@H]4CC[C@](O)(CC)[C@H](C)O4)O3)O2)[C@H](C)C[C@@H]1C`: the MIC (with Staphylococcus aureus [4]; in [12]) was 32 µg/mL (≈ 30.2 µM) in each case.

Turning to `O=C1CC2CN(c3ccc(N4C[C@H](Cn5ccnn5)OC4=O)cc3F)CC2C1` (some centres not stated), the MIC in the data set with Staphylococcus aureus [13] amounted to 3.12 µg/mL (≈ 8.1 µM).

With `CO/N=C1\C(=O)N(Cc2cn(CC(=O)N3CCC[C@H]4CN(c5c(F)cc6c(=O)c(C(=O)O)cn(C7CC7)c6c5OC)C[C@H]43)nn2)c2ccc(C)cc21`, the MIC in the data set with Staphylococcus aureus [3] is no more than 0.03 µg/mL; in the data set on Staphylococcus aureus [4], 1 µg/mL (≈ 1.4 µM); in data set [5], no more than 0.03 µg/mL; against Enterococcus faecalis, no more than 0.03 µg/mL; in the data set on Enterococcus faecium, no more than 0.03 µg/mL; against Escherichia coli it was no more than 0.03 µg/mL. Moreover, the MIC in the data set with Klebsiella pneumoniae, against Enterobacter cloacae, in the data set with Klebsiella aerogenes, against Providencia rettgeri and against Proteus vulgaris was no more than 0.03 µg/mL each time. In data set [6], the midpoint of cytotoxicity, the CC50, lay at 32 µg/mL (≈ 44.9 µM).

Regarding `CC(=O)NC[C@H]1CN(c2ccc(N3C[C@H]4CC(n5ccnn5)C[C@H]4C3)c(F)c2)C(=O)O1` (some centres not stated), the MIC against Staphylococcus aureus [14], against Staphylococcus aureus [15], with Staphylococcus aureus [16] and against Staphylococcus aureus [17] was 16 µg/mL (≈ 37.3 µM) in each case.

With `CC(=O)NC[C@H]1CN(c2ccc(N3CCN(C(=O)c4cn(C[C@H]5O[C@@H](n6cc(C)c(=O)[nH]c6=O)[C@H](O)[C@@H]5O)nn4)CC3)c(F)c2)C(=O)O1`, the MIC in the data set with Staphylococcus aureus [18] was found to be 64 µg/mL (≈ 95.3 µM).

`N=C(N)NCCC[C@H](NC(=O)[C@H](Cc1c[nH]c2ccccc12)NC(=O)[C@@H](N)CCCNC(=N)N)C(=O)N[C@@H](Cc1c[nH]c2ccccc12)C(=O)N[C@@H](CCCCn1cc(COc2cc(OCc3cn(CCCC[C@H](NC(=O)[C@H](Cc4c[nH]c5ccccc45)NC(=O)[C@H](CCCNC(=N)N)NC(=O)[C@H](Cc4c[nH]c5ccccc45)NC(=O)[C@@H](N)CCCNC(=N)N)C(N)=O)nn3)cc(OCc3cn(CCCC[C@H](NC(=O)[C@H](Cc4c[nH]c5ccccc45)NC(=O)[C@H](CCCNC(=N)N)NC(=O)[C@H](Cc4c[nH]c5ccccc45)NC(=O)[C@@H](N)CCCNC(=N)N)C(N)=O)nn3)c2)nn1)C(N)=O`: the MIC in the data set on Staphylococcus aureus [19] was found to be 2.7 µM (≈ 7.58 µg/mL); against Staphylococcus aureus [20], 5.4 µM (≈ 15.2 µg/mL). In addition, the Ratio in the data set with Staphylococcus aureus [21] is given as 0.5.
